Assay results from ChEMBL document CHEMBL2169844, “6β-N-heterocyclic substituted naltrexamine derivative NAP as a potential lead to develop peripheral mu opioid receptor selective antagonists” (Bioorg Med Chem Lett, 2012).
The source made the active and inactive calls. No cut-off for these calls is given here.

How the values were obtained:
[1] = test system: Mus musculus; assay: Increase in gastrointestinal motility in sc dosed morphine-pelleted mouse administered 20 mins before forced charcoal meal measured after 30 mins; assay type: functional
[2] = test system: Mus musculus; assay: Ratio of ED50 for MNTX to compound ED50 for morphine-pelleted mouse administered 20 mins before forced charcoal meal measured after 30 mins; assay type: functional
[3] = test system: Mus musculus; assay: Toxicity in mouse assessed as lower locomotory activity measured as walking at 32 mg/kg, iv followed by morphine at 32 mg/kg, sc; assay type: organism-based; details: in vivo
[4] = test system: Mus musculus; assay: Increase in gastrointestinal motility in morphine-naive mouse assessed as decrease in stool weight at 0.3 mg/kg, sc administered 20 mins before forced charcoal meal measured after 30 mins; assay type: functional, organism-based; design: dose 0.3 mg/kg
[5] = target: Mu-type opioid receptor (Rattus norvegicus) (UniProt P33535); assay: Partial agonist activity at mu opioid receptor in rat thalamus assessed as stimulation of [35S]-GTP[gammaS]-binding relative to DAMGO; assay type: functional, tissue-based
Sequence of Mu-type opioid receptor (Rattus norvegicus) (P33535 whole entry): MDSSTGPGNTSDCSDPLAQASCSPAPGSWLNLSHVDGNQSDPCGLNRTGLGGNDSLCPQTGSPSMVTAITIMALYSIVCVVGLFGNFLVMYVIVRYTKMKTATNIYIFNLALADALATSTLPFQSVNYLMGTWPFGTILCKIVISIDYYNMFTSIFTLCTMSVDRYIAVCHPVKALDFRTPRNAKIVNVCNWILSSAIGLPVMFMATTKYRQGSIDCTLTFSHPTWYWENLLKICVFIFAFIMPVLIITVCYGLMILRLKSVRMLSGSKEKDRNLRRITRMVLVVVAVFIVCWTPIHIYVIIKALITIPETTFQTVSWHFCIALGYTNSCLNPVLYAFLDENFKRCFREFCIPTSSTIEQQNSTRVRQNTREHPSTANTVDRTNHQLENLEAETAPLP

[6] = species on record: Mus musculus; assay: Ratio of naltrexone to compound for toxicity in mouse assessed as reduced wet dog shakes; assay type: organism-based; details: in vivo
[7] = species on record: Mus musculus; assay: Ratio of ED50 for increase in gastrointestinal motility in morphine-pelleted mouse to ED50 for toxicity in mouse assessed as lower locomotory activity; assay type: functional
[8] = test system: Mus musculus; assay: Increase in gastrointestinal motility in morphine-naive mouse assessed as decrease in stool weight at 3 mg/kg, sc administered 20 mins before forced charcoal meal measured after 30 mins; assay type: functional, organism-based; design: dose 3 mg/kg
[9] = species on record: Mus musculus; assay: Ratio of naloxone to compound for toxicity in mouse assessed as reduced wet dog shakes; assay type: organism-based; details: in vivo
[10] = test system: Mus musculus; assay: Increase in gastrointestinal motility in morphine-pelleted mouse at 0.3 mg/kg, sc administered 20 mins before forced charcoal meal measured after 30 mins; assay type: functional, organism-based; design: dose 0.3 mg/kg
[11] = test system: Mus musculus; assay: Increase in gastrointestinal motility in morphine-pelleted mouse at 3 mg/kg, sc administered 20 mins before forced charcoal meal measured after 30 mins; assay type: functional, organism-based; design: dose 3 mg/kg
[12] = test system: Mus musculus; assay: Toxicity in mouse assessed as high locomotory activity measured as jumping up to 50 mg/kg, iv followed by morphine at 32 mg/kg, sc; assay type: organism-based; details: in vivo
[13] = test system: Mus musculus; assay: Increase in gastrointestinal motility in morphine-pelleted mouse assessed as decrease in stool weight at 0.3 to 1 mg/kg, sc administered 20 mins before forced charcoal meal measured after 30 mins; assay type: functional, organism-based
[14] = test system: Mus musculus; assay: Increase in gastrointestinal motility in morphine-pelleted mouse at 0.003 to 0.03 mg/kg, sc administered 20 mins before forced charcoal meal measured after 30 mins; assay type: functional, organism-based
[15] = test system: Mus musculus; assay: Toxicity in morphine-pelleted mouse assessed as diarrhea at 0.3 mg/kg, sc; assay type: organism-based; design: dose 0.3 mg/kg, route subcutaneous; details: in vivo
[16] = test system: Mus musculus; assay: Increase in gastrointestinal motility in morphine-pelleted mouse assessed as decrease in stool weight at 0.3 to 3 mg/kg, sc administered 20 mins before forced charcoal meal measured after 30 mins; assay type: functional, organism-based
[17] = test system: Mus musculus; assay: Increase in gastrointestinal motility in morphine-pelleted mouse assessed as increase in stool weight at 0.3 to 1 mg/kg, sc administered 20 mins before forced charcoal meal measured after 30 mins; assay type: functional, organism-based
[18] = test system: Mus musculus; assay: Increase in gastrointestinal motility in morphine-naive mouse assessed as decrease in stool weight at 30 mg/kg, sc administered 20 mins before forced charcoal meal measured after 30 mins; assay type: functional, organism-based; design: dose 30 mg/kg
[19] = test system: Mus musculus; assay: Toxicity in mouse assessed as wet dog shakes at 50 mg/kg, iv followed by morphine at 32 mg/kg, sc; assay type: organism-based; details: in vivo
[20] = test system: Mus musculus; assay: Increase in gastrointestinal motility in morphine-pelleted mouse at 1 mg/kg, sc administered 20 mins before forced charcoal meal measured after 30 mins; assay type: functional, organism-based; design: dose 1 mg/kg

Compound	ED50 [1] [mg/kg]	Ratio ED50 [2]	Activity [3]	Activity [4]	Emax [5] [%]	Ratio [6]	Ratio ED50 [7]	Activity [8]	Ratio [9]	Activity [10]	Activity [11]	Activity [12]	Activity [13]	Activity [14]	Activity [15]	Activity [16]	Activity [17]	Activity [18]	Activity [19]	Activity [20]
C[N+]1(CC2CC2)CC[C@]23c4c5ccc(O)c4O[C@H]2C(=O)CC[C@@]3(O)[C@H]1C5 (stereo partly specified) [METHYLNALTREXONE]	2.5	–	–	–	–	–	–	–	–	–	–	–	–	–	–	–	–	–	–	–
O=C(N[C@@H]1CC[C@@]2(O)[C@H]3Cc4ccc(O)c5c4[C@@]2(CCN3CC2CC2)[C@H]1O5)c1ccncc1	0.0088	300	Toxic	inactive	16.7	50	>3600	Active	50	Active	Active	Toxic	Active	inactive	Toxic	inactive	inactive	inactive	Toxic	Active
